{
  "source": "paper PMC4438233",
  "about": "“Antibacterial effects of Traditional Chinese Medicine monomers against Streptococcus pneumoniae via inhibiting pneumococcal histidine kinase (VicK)” (Frontiers in Microbiology, 2015)",
  "key": {"[1]": {"molecular_target": "T1, full-length VicK protein (Streptococcus pneumoniae, UniProt Q8DPL8)", "T1 construct": "6 His; made in house", "T1 sequence (Q8DPL8 whole entry)": "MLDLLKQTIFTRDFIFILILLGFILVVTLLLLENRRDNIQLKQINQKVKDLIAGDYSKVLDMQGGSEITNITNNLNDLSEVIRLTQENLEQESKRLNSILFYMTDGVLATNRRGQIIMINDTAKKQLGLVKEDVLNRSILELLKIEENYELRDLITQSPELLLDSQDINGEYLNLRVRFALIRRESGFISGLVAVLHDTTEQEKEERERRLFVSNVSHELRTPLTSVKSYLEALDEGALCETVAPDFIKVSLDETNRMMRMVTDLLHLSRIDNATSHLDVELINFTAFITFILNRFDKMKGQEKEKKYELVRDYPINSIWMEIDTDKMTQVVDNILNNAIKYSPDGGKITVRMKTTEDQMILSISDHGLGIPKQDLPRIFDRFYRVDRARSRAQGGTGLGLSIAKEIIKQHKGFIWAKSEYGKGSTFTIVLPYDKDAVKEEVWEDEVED", "experiment": "Inhibition assay for ATPase activity of VicK (Kinase-Glo Luminescent Kinase Assay)", "format": "biochemical", "settings": "6 μg VicK, 5 μM ATP, read-out: IC50 (inhibition of VicK ATPase activity / autophosphorylation) (converted)", "procedure": "The inhibitory activities of the Chinese medicine monomers for the ATPase activity of the full-length VicK protein were evaluated using the Kinase-Glo™Luminescent Kinase Assay (Promega, Madison, USA). Briefly, 6 μg VicK protein was pre-incubated with a series of dilution of compounds in the reaction buffer at 37°C for 30 min. 5 μM ATP was added and incubated for another 30 min. Kinase-Glo™Reagent was also added to detect the remaining ATP recorded from luminescence measurements (RLU). In parallel, the VicK protein with no addition of compounds was used as a control, and the mixture with compounds excluding the VicK protein served as another control. The rate of protein phosphorylation (Rp) inhibition by the compounds was calculated from Equation (1).\n(1) Rp=1−RLU(compound+ATP+Reagent) −RLU(compound+ATP+vick+Reagent)/RLU(ATP +Reagent)−RLU(ATP+vick+Reagent)×100%\nThe half maximal inhibitory concentration (IC50), which is the concentration of inhibition of 50% VicK protein autophosphorylation, was determined by GraphPad Prism 5 (Qin et al., [2006])."}, "[2]": {"test_system": "S. mitis", "experiment": "MIC against S. mitis", "format": "cell-based", "settings": "Streptococcus mitis; S. mitis clinical isolate; 10^6 CFU/ml; read-out: MIC", "procedure": "(§1) Minimum inhibitory concentration (MIC) assays for the antibacterial activities of the compounds were performed according to the standard […] method of the Clinical and Laboratory Standards Institute of America. MIC testing of drug-resistant S. pneumoniae, drug-resistant S. aureus, streptococci and antimicrobial combination was also performed using the same method. Briefly, the drugs were serially diluted 2-fold into eight wells with C+Y medium, yielding final concentrations ranging from […]. Then 10^6 CFU bacteria were added to each well. Inoculated medium containing 1% DMSO served as a bacterial growth control, whereas uninoculated medium served as a sterility control. The plates were incubated at 37°C for 12–16 h. […] The experiment was repeated three times."}, "[3]": {"test_system": "S. pseudopneumoniae", "experiment": "MIC against S. pseudopneumoniae", "format": "cell-based", "settings": "Streptococcus pseudopneumoniae; S. pseudopneumoniae clinical isolate; 10^6 CFU/ml; read-out: MIC", "procedure": "as §1"}, "[4]": {"test_system": "S. pneumoniae", "experiment": "Checkerboard test with erythromycin or tetracycline against S. pneumoniae", "format": "cell-based, Streptococcus pneumoniae", "procedure": "The antimicrobial effects of different combinations of two antimicrobial agents were assayed using the checkerboard test (Bajaksouzian et al., [1997]). Each experiment was repeated thrice. […] The FIC index (FICI) was calculated using the following formula:\n(§2) (2) FIC=FICA+FICB=[A]/MICA+[B]/MICB\n(§3) where [A] and [B] are the concentrations of drugs A and B, respectively; MICA and FICA are the MIC and FIC of drug A for the organism, respectively; and MICB, and FICB are the MIC and FIC of drug B for the organism, respectively. The FIC index obtained was interpreted as follows: =0.5, synergy; FIC > 2.0, antagonism (Gupta and Kohli, [2003])."}, "[5]": {"test_system": "pneumococcal strains", "experiment": "MIC against clinical pneumococcal strains (penicillin susceptible, intermediate, resistant)", "format": "cell-based, Streptococcus pneumoniae", "settings": "for MIC50 / MIC90: Streptococcus pneumoniae; for MIC50: read-out: MIC of pneumococcal strains, MIC50; for MIC90: read-out: MIC of pneumococcal strains, MIC90", "procedure": "as §1"}, "[6]": {"test_system": "S. mutans", "experiment": "MIC against S. mutans", "format": "cell-based", "settings": "Streptococcus mutans; S. mutans clinical isolate; 10^6 CFU/ml; read-out: MIC", "procedure": "as §1"}, "[7]": {"experiment": "Cytotoxicity assay (MTT)", "format": "cell-based", "settings": "African green monkey, Vero cells (African green monkey kidney cells)", "procedure": "The cytotoxicity of the drugs to Vero cells (African green monkey kidney cells) was detected as previously described (Huang et al., [2012]) with minor modifications. In 96-well cell culture plates, the cells (~10^3 cells per well) were exposed to the serially diluted drugs for 48 h. Then, relative cell numbers were assayed by co-incubation with 3-(4, 5-dimethylthiazol-2-yl)-2, 5-diphenyltetrazolium bromide for 4 h at 37°C in 5% CO2. Purple formazan salts were dissolved with DMSO after incubation. The absorbance of each well was measured at 595 nm and then converted to percentages of the control (cells treated with 1% DMSO). The concentration of the derivatives with 50% cytotoxicity for Vero cells (CC50) was calculated using GraphPad Prism 5 (San Diego, CA)."}, "[8]": {"test_system": "Penicillin-resistant S. pneumoniae strains", "experiment": "Checkerboard test with penicillin against penicillin-resistant S. pneumoniae", "format": "cell-based, Streptococcus pneumoniae", "settings": "Streptococcus pneumoniae, agent alone, read-out: MIC, Alone", "procedure": "as §1\nThe antimicrobial effects of different combinations of two antimicrobial agents were assayed using the checkerboard test (Bajaksouzian et al., [1997]). Each experiment was repeated thrice. The in vitro interaction between the five drugs with PEN was quantified by the fractional inhibitory concentration (FIC). The FIC index (FICI) was calculated using the following formula:\nas §2, §3"}, "[9]": {"test_system": "S. pyogenes", "experiment": "MIC against S. pyogenes", "format": "cell-based", "settings": "Streptococcus pyogenes; S. pyogenes clinical isolate; 10^6 CFU/ml; read-out: MIC", "procedure": "as §1"}, "[10]": {"test_system": "S. pneumoniae NCTC7466", "experiment": "MIC against S. pneumoniae NCTC7466 (D39)", "format": "cell-based", "settings": "Streptococcus pneumoniae, S. pneumoniae NCTC7466 (D39), read-out: MIC", "procedure": "as §1"}, "[11]": {"test_system": "S. pneumoniae NCTC7466", "experiment": "Mouse sepsis model, survival time", "format": "in vivo, BALB/c mice", "settings": "i.p. infection 1 × 10^3 CFU; drug i.p. thrice a day for 3 d; untreated control 28.8 ± 1.25", "procedure": "Female BALB/c mice (12–15 per group) aged 4–6 weeks were used to evaluate the antimicrobial effects of the compounds in vivo. In sepsis models, the mice were intraperitoneally infected with 100 μL S. pneumoniae NCTC7466 strain suspension (1 × 10^3 CFU). […] Two control groups were injected with 100 μL 1% DMSO (dissolved the drugs, negative control) or PEN (0.42 mg/kg/d, positive control) following the same injection route. The result was expressed as cumulative survival times following 7 d of observation."}, "[12]": {"settings": "Penicillin intermediate (n = 12)"}},
  "note": "Where two headings read alike, the source gives them in different places.",
  "data": [
    {"smiles": "CSC[C@H]1O[C@@H](n2cnc3c(N)ncnc32)[C@H](O)[C@@H]1O", "note": "[Compound 1, 5′-(Methylthio)-5′-deoxyadenosine]", "values": [
      {"measurement": "IC50", "setting": "[1]", "result": 3.8, "unit": "µM"},
      {"measurement": "IC50", "setting": "[1]; value in parentheses", "result": 3.77, "unit": "µM"},
      {"measurement": "MIC", "setting": "[2]", "result": 148, "unit": "µg/mL"},
      {"measurement": "MIC", "setting": "[3]", "result": 148, "unit": "µg/mL"},
      {"measurement": "FICI", "setting": "[4]; in combination with Erythromycin", "result": 2},
      {"measurement": "FICI", "setting": "[4]; in combination with Tetracycline", "result": 0.9},
      {"measurement": "MIC of pneumococcal strains, Range", "setting": "[5]; [12]", "result": "74 to 594", "unit": "µg/mL"},
      {"measurement": "MIC of pneumococcal strains, Range", "setting": "[5]; Penicillin resistant (n = 15)", "result": "296.8 to 593.6", "unit": "µg/mL"},
      {"measurement": "MIC of pneumococcal strains, Range", "setting": "[5]; Penicillin susceptible (n = 7)", "result": "74 to 148", "unit": "µg/mL"},
      {"measurement": "MIC50", "setting": "[5]; [12]", "result": 148, "unit": "µg/mL"},
      {"measurement": "MIC90", "setting": "[5]; [12]", "result": 296, "unit": "µg/mL"},
      {"measurement": "MIC50", "setting": "[5]; Penicillin resistant (n = 15)", "result": 297, "unit": "µg/mL"},
      {"measurement": "MIC90", "setting": "[5]; Penicillin resistant (n = 15)", "result": 297, "unit": "µg/mL"},
      {"measurement": "MIC50", "setting": "[5]; Penicillin susceptible (n = 7)", "result": 74, "unit": "µg/mL"},
      {"measurement": "MIC90", "setting": "[5]; Penicillin susceptible (n = 7)", "result": 148, "unit": "µg/mL"},
      {"measurement": "MIC", "setting": "[6]", "result": 594, "unit": "µg/mL"},
      {"measurement": "CC50 at 48 h", "setting": "[7]", "result": "> 16000", "unit": "µM"},
      {"measurement": "MIC", "setting": "[8]; strain 652336", "result": 297, "unit": "µg/mL"},
      {"measurement": "MIC", "setting": "[8]; strain 736007", "result": 297, "unit": "µg/mL"},
      {"measurement": "MIC", "setting": "[8]; strain 8364981", "result": 148, "unit": "µg/mL"},
      {"measurement": "MIC", "setting": "[8]; strain 12092624", "result": 297, "unit": "µg/mL"},
      {"measurement": "MIC", "setting": "[9]", "result": 148, "unit": "µg/mL"},
      {"measurement": "MIC", "setting": "[10]", "result": 37.1, "unit": "µg/mL"},
      {"measurement": "MIC", "setting": "[10]; value in parentheses", "result": 124, "unit": "µM"},
      {"measurement": "Mean survival of mice ± SEM", "setting": "[11]", "result": "49.5 ± 3.93", "unit": "h"}
    ]}
  ]
}
